Assay results reported in patent US9732093B2, “FLAP modulators” (JANSSEN PHARMACEUTICA NV, priority 2013, dated 2017).
Read-outs that look alike come from different tables or passages of the source.

Key:
[1] = target: human FLAP (Homo sapiens (Human), UniProt P20292); experiment: FLAP binding assay (HTRF format)
Summary of the method: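 Read-out is the HTRF ratio. Each reported figure averages two assay plates on which samples were tested in duplicate.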

[2] = system: leukotriene pathway in human whole blood; experiment: Human whole blood assay (LTB4 levels after A23187 stimulation); type: cell-based
Description: The ability of the compounds of the present invention to treat a FLAP-mediated disease and/or disorder, or associated symptoms or complications thereof, was determined using the following procedures. Binding assay data represent the average value obtained from two different assay plates, with samples run in duplicate on each plate. Human whole blood assay data represent a single replicate on an assay plate using whole blood from at least one healthy donor.
An in vitro cellular assay was performed using human whole blood collected in heparin-containing tubes, which was used to test the ability of compounds to modulate the leukotriene pathway in human whole blood. The blood was diluted 1:1 in RPMI medium, pre-incubated for 15 min at 37° Celsius with test compounds at various concentrations, and then stimulated with calcium ionophore, A23187 (7 μg/mL), for 30 min at 37° Celsius. The samples were then centrifuged and plasma was removed. The plasma was diluted in assay buffer and LTB4 levels were measured using a commercial kit (Enzo Life Sciences). The concentration of each compound that was required for half-maximal inhibition (modulation) of recombinant enzyme activity (IC50) was calculated by a 4-parameter equation using the program GraphPad Prism (GraphPad software).

[3] = human FLAP wild type membranes, HTRF format, Table 6 (additional runs)
[4] = human whole blood diluted 1:1 in RPMI, A23187 stimulation, Table 6 (additional runs)
[5] = Homo sapiens, blood diluted 1:1 in RPMI, 15 min pre-incubation, A23187 7 μg/mL for 30 min at 37° Celsius, plasma LTB4
[6] = human FLAP-containing membranes, HTRF ligand 25 nM, 2 h, average of two plates, duplicates, read-out: FLAP Binding wild type HTRF Ki

human FLAP, sequence (P20292 whole entry): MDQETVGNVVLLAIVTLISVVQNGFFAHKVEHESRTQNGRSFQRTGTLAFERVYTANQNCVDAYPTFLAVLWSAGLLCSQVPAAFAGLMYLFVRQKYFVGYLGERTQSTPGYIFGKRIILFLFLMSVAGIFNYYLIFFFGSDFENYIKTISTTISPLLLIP

Row | Compound | Ki [1, 3] | IC50 [2, 4] | IC50 [2, 5] | Ki [1, 6]
1 | Nc1cnc(-c2ccc(C3CCC3)c(Oc3ccnc(N)c3)c2F)cn1 [Example 347, 5-{3-[(2-Aminopyridin-4-yl)oxy]-4-cyclobutyl-2-fluorophenyl}pyrazin-2-amine] | 47.6 nM | 396 nM |  | 
2 | Nc1cnc(-c2ccc(C3CCC3)c(Oc3cncc(N)n3)c2F)cn1 [Example 348, 5-{3-[(6-Aminopyrazin-2-yl)oxy]-4-cyclobutyl-2-fluorophenyl}pyrazin-2-amine] | 13.1 nM | 147 nM |  | 
3 | Nc1cnc(-c2ccc(C3CCC3)c(Oc3cncnc3)c2F)cn1 [Example 349, 5-[4-Cyclobutyl-2-fluoro-3-(pyrimidin-5-yloxy)phenyl]pyrazin-2-amine] | 31 nM | > 1000 nM |  | 
4 | Nc1cnnc(Oc2c(C3CCC3)ccc(-c3cnc(N)cn3)c2F)c1 [Example 350, 6-[3-(5-Aminopyrazin-2-yl)-6-cyclobutyl-2-fluorophenoxy]pyridazin-4-amine] | 52.9 nM | 449 nM |  | 
5 | CC(C)(C)c1ccc(-c2cnc3[nH]ccc3c2)c(F)c1Oc1ncccn1 [Example 351, 5-[4-tert-Butyl-2-fluoro-3-(pyrimidin-2-yloxy)phenyl]-1H-pyrrolo[2.3-b]pyridine] | 54.4 nM | 124 nM |  | 
6 | Nc1ncc(-c2ccc(C3CCC3)c(O)c2F)cn1 [Intermediate E, 3-(2-Aminopyrimidin-5-yl)-6-cyclobutyl-2-fluorophenol] | 99.5 nM | 1100 nM | 1100 nM | 
7 | CC(C)(C)c1ccc(-c2cnc(N)cn2)c(F)c1O [Intermediate G, 3-(5-Aminopyrazin-2-yl)-6-tert-butyl-2-fluorophenol] |  | 575 nM | 575 nM | 77.9 nM
8 | CC(C)(C)c1ccc(-c2cnc(N)nc2)c(F)c1O [Intermediate H, 3-(2-Aminopyrimidin-5-yl)-6-tert-butyl-2-fluorophenol] |  | 287 nM | 287 nM | 72.3 nM
